Data from patent publication US4386198A, “2-Hydroxyaclacinomycin A and 2-hydroxyaklavinone and process for preparing same” (priority 1979, dated 1983).
Converted amounts (≈) assume the structure as drawn.

Legend:
[1] = tested on: RNA biosynthesis in L 1210 cells; assay: in vitro activity: RNA synthesis in L 1210 cells (14C-uridine incorporation); assay type: cell-based, murine; conditions: for IC50: Mus musculus, L1210, L 1210, 14C-uridine, 60 min pulse after 15 min with compound, 37° C.
Description: (§1) In an example, L 1210 cells were inoculated in RPMI (Rosewell Park Memorial Institute) 1640 medium containing 20% calf serum at the cell density of 5×10^4 cells/ml, and the compound in the present invention was simultaneously added to the medium at the concentration of 0.1 and 0.5 μg/ml and incubated at 37° C. in a CO2 incubator. 50% growth inhibition concentration of the compound over controls was determined. L 1210 cells as described above were also inoculated at 5×10^5 cells in RPMI 1640 medium containing 10% calf serum and incubated at 37° C. for 1 to 2 hours in a CO2 incubator. The cells were cultured for 15 min. at 37° C. after the compound of the present invention was added at various concentrations, and then ^14 C-uridine (0.05 μCi/ml) or ^14 C-thymidine (0.05 μCi/ml) was added and incubated for 60 additional min. at 37° C. After stopping the pulse-labeling by addition of 10% trichloroacetic acid (TCA) solution to the reaction mixture, acid-insoluble materials were precipitated, washed three times with 5 to 10% TCA, and dissolved in a small amount of formic acid. Then, radioactivity was determined, and inhibitory effects on the RNA and DNA biosynthesis were indicated by the 50% inhibition concentration (IC50) of the incorporation of radioactivity over controls.

[2] = tested on: DNA biosynthesis in L 1210 cells; assay: in vitro activity: DNA synthesis in L 1210 cells (14C-thymidine incorporation); assay type: cell-based, murine; conditions: Mus musculus, L1210; L 1210, 14C-thymidine, 60 min pulse after 15 min with compound, 37° C.
Description: as §1

[3] = tested on: dd mice; assay: Acute toxicity (LD50) in dd mice; assay type: in vivo; conditions: compared with daunomycin and adriamycin
[4] = Acute toxicity (LD50) in dd mice; assay type: in vivo; conditions: mouse, in vivo, ip; dd mice
[5] = cardiotoxicity compared with aclacinomycin A; conditions: comparing with aclacinomycin A
[6] = tested on: L 1210 cells; assay: growth and nucleic acid biosynthesis of murine leukemia L 1210 cells in culture; assay type: cell-based
Description: as §1

[7] = tested on: L 1210 leukemia; assay: in vivo antitumor activity: L 1210 (prolongation of lifespan of CDF1 mice inoculated intraperitoneally with L 1210 cells); set-up: species or system mice (murine; CDF1); conditions: for T/C: once daily for 10 days, from 24 h after inoculation
Description: Antitumor effect against experimental animal tumor was examined as follows. CDF1 mice were inoculated with 1×10^5 cells of L 1210 cells intraperitoneally, and 2-hydroxyaclacinomycin A was administered intraperitoneally once daily for 10 days consecutively, 24 hours after inoculation. Prolongation of lifespan over controls (injected with only physiological saline instead of 2-hydroxyaclacinomycin A) is shown in Table 1. LD50 value in dd mice is also shown in Table 1 comparing with that of aclacinomycin A.

[8] = tested on: L 1210 cells; assay: in vitro activity: L 1210 growth inhibition; assay type: cell-based, murine; conditions: for IC50: Mus musculus, L1210, L 1210, RPMI 1640 with 20% calf serum, 37° C.
Description: as §1

Structure (SMILES) | IC50 [1] [µg/mL] | inhibition of RNA synthesis, in words ([1]; mode of action compared to aclacinomycin and rhodomycin-group) | IC50 [2] [µg/mL] | acute toxicity, in words [3] | LD50 [4] [mg/kg] | cardiotoxicity, in words [5] | inhibition of growth and nucleic acid biosynthesis, in words [6] | T/C ([7]; 0.5 mg/kg/day i.p.) [%] | T/C ([7]; 1 mg/kg/day i.p.) [%] | T/C ([7]; 2 mg/kg/day i.p.) [%] | T/C ([7]; 4 mg/kg/day i.p.) [%] | T/C ([7]; 6 mg/kg/day i.p.) [%] | T/C ([7]; 8 mg/kg/day i.p.) [%] | T/C ([7]; 12 mg/kg/day i.p.) [%] | prolongation of lifespan, in words ([7]; L 1210-bearing mice) | antitumor activity, in words ([7]; comparing with aclacinomycin A) | effective dose range relative to aclacinomycin A ([7]; relative to aclacinomycin A) | IC50 [8] [µg/mL] | suppression of growth, in words ([8]; murine leukemic cells, low concentration) | toxicity in words at 8 mg/kg/day (in T/C column) ([7]; 8 mg/kg/day i.p., L 1210-bearing CDF1 mice)
CCC1(O)CC(OC2CC(N(C)C)C(OC3CC(O)C(OC4CCC(=O)C(C)O4)C(C)O3)C(C)O2)c2c(cc3c(c2O)C(=O)c2c(O)cc(O)cc2C3=O)C1C(=O)OC (centres unmarked) [2-Hydroxyaclacinomycin A, 2-hydroxyaclacinomycin A] | 0.1 (≈ 0.121 µM) | specifically inhibited RNA synthesis | 0.95 (≈ 1.15 µM) | much more less than those of known anthracycline antibiotics such as daunomycin and adriamycin | 50 | less cardiotoxicity | inhibited markedly the growth and nucleic acid biosynthesis | 145 | 153 | 176 | 201 | 218 | 194 | 127 | marked prolongation of lifespan | more potent antitumor activity | twice | 0.1 (≈ 0.121 µM) | suppressed the growth of murine leukemic cells at low concentration | –
CC[C@@]1(O)C[C@H](O[C@H]2C[C@H](N(C)C)[C@H](O[C@H]3C[C@H](O)[C@H](O[C@H]4CCC(=O)[C@H](C)O4)[C@H](C)O3)[C@H](C)O2)c2c(cc3c(c2O)C(=O)c2c(O)cccc2C3=O)[C@H]1C(=O)OC [Aclacinomycin A] | 0.1 (≈ 0.123 µM) | – | 1.1 (≈ 1.35 µM) | – | 22.6 | – | – | 130 | 146 | 165 | 205 | 105 | – | – | – | – | – | 0.12 (≈ 0.148 µM) | – | Toxic
